Assay results: patent US20040106545A1, “Compounds and methods for modulating cell adhesion” (priority 1996, published 2004)
Entries after “also recorded” stand apart in the source; their conditions may differ.

How the values were obtained:
Assay type in all cases: cell-based
[1] = test system: NRK cells; test: Disruption of normal rat kidney (NRK) cell adhesion, E-cadherin immunofluorescence; settings: 1 mg/mL, 48 hours
Method: Within another such assay, the effect of a modulating agent on normal rat kidney (NRK) cells may be evaluated. According to a representative procedure, NRK cells (ATCC #1571-CRL) may be plated at 10-20,000 cells per 35 mm tissue culture flasks containing DMEM with 10% FCS and sub-cultured periodically (Laird et al., J. Cell Biol. 131:1193-1203, 1995). Cells may be harvested and replated in 35 mm tissue culture flasks containing 1 mm coverslips and incubated until 50-65% confluent (24-36 hours). At this time, coverslips may be transferred to a 24-well plate, washed once with fresh DMEM and exposed to modulating agent at a concentration of, for example, 1 mg/mL for 24 hours. Fresh modulating agent may then be added, and the cells left for an additional 24 hours. Cells may be fixed with 100% methanol for 10 minutes and then washed three times with PBS. Coverslips may be blocked for 1 hour in 2% BSA/PBS and incubated for a further 1 hour in the presence of mouse anti-E-cadherin antibody (Transduction Labs, 1:250 dilution). Primary and secondary antibodies may be diluted in 2% BSA/PBS. Following incubation in the primary antibody, coverslips may be washed three times for 5 minutes each in PBS and incubated for 1 hour with donkey anti-mouse antibody conjugated to fluorescein (diluted 1:200). Following further washes in PBS (3×5 min) coverslips can be mounted and viewed by confocal microscopy.
NRK cells (ATCC #1571-CRL) were plated at 10-20,000 cells per 35 mm tissue culture flasks containing DMEM with 10% FCS and sub-cultured periodically (Laird et al., J. Cell Biol. 131:1193-1203, 1995). Cells were harvested and replated in 35 mm tissue culture flasks containing 1 mm coverslips and incubated until 50-65% confluent (24-36 hours). At this time, coverslips were transferred to a 24-well plate, washed once with fresh DMEM and exposed to cyclic peptide solutions (N—Ac-CHAVC-NH2 (SEQ ID NO:10) and N—Ac-CHGVC-NH2 (SEQ ID NO:11)) at a concentration of 1 mg/mL for 24 hours. Fresh peptide solutions were then added and the cells were left for an additional 24 hours. Cells were fixed with 100% methanol for 10 minutes and then washed three times with PBS. Coverslips were blocked for 1 hour in 2% BSA/PBS and incubated for a further 1 hour in the presence of mouse anti-E-cadherin antibody (Transduction Labs, Lexington, Ky.; 1:250 dilution). Primary and secondary antibodies were diluted in 2% BSA/PBS. Following incubation in the primary antibody, coverslips were washed three times for 5 minutes each in PBS and incubated for 1 hour with donkey anti-mouse antibody conjugated to fluorescein (Jackson Immuno Research, West Grove, Pa.; diluted 1:200). Following a further wash in PBS (3×5 min) coverslips were mounted and viewed by confocal microscopy.

[2] = test system: A1N4 human breast epithelial cells; test: Disruption of breast epithelial cell adhesion, E-cadherin staining; settings: 500 μg/mL, 48 hours
Method: A1N4 human breast epithelial cells (kindly provided by Martha Stampfer, Lawrence Berkeley Laboratory, Berkeley, Calif.) were plated on glass coverslips and cultured in F12/DME containing 0.5% FCS and 10 ng/mL EGF for 24 hours. Fresh medium containing the cyclic peptides (final concentration 500 μg/mL media) N—Ac-CHAVC-NH2 (SEQ ID NO:10) or N—Ac-CHGVC-NH2 (SEQ ID NO:11) was then added. Following 24 hours of culture in the presence of the peptides, the medium was removed and fresh medium containing the peptides was added. The cells were fixed 24 hours later with cold methanol and stored in phosphate buffered saline (PBS).
Coverslips were blocked for 1 hour in 3% ovalbumin/PBS and incubated for a further 1 hour in the presence of 1 μg/mL mouse anti-E-cadherin antibody (Zymed, Gaithersburg, Md.). Primary and secondary antibodies were diluted in PBS containing 6% normal goat serum. Following incubation in the primary antibody, coverslips were washed 3 times for 5 minutes each in PBS and incubated for 1 hour with goat anti-mouse conjugated to fluorescein (Kiekegard and Perry, South San Francisco, Calif.) diluted 1:100. Following a further wash in PBS (3×5 minutes) coverslips were mounted in Vectashield (Vector Labs, Burlingame, Calif.) and viewed with a Zeiss infinity corrected microscope.

[3] = Cytotoxicity, MTT assay, HMVEC; settings: human, HMVEC (human microvascular endothelial cells), read-out: HMVEC Cytotox (IC50)
Method: (§1) N—Ac-CHAVC-NH2 (SEQ ID NO:10) and the control peptide N—Ac-CHGVC-NH2 (SEQ ID NO:11) were evaluated for possible cytotoxic effects on human microvascular endothelial (HMVEC; Clonetics), human umbilical vein endothelial (HUVEC; ATCC #CRL-1730), IAFp2 (human fibroblast cell line; Institute Armand-Frapier, Montreal, Quebec), WI-38 (human fibroblast cell line; ATCC #CCL-75), MDA-MB231 (human breast cancer cell line; ATCC #HTB-26), and PC-3 (human prostate cancer cell line; ATCC #CRL-1435) cells utilizing the MTT assay (Plumb et al., Cancer Res. 49:4435-4440, 1989). Neither of the peptides was cytotoxic at concentrations up to and including 100 μM. Similarly, neither of the peptides was capable of inhibiting the proliferation of the above cell lines at concentrations up to 100 μM, as judged by ^3H-thymidine incorporation assays.

[4] = Cytotoxicity, MTT assay, HUVEC; settings: human, HUVEC (human umbilical vein endothelial cells), read-out: HUVEC Cytotox (IC50)
Method: as §1

[5] = Cytotoxicity, MTT assay, IAFp2; settings: human, read-out: IAFp2 Cytotox (IC50)
Method: as §1

| Compound | E-cadherin expression of NRK cells (immunofluorescence) [1] | disruption of NRK cell adhesion [1] | E-cadherin staining and monolayer of A1N4 cells [2] | IC50 [3] | IC50 [4] | IC50 ([5]; IAFp2 fibroblast cell line) | IC50 ([5]; IAFp2 cells (human fibroblast cell line)) |
| --- | --- | --- | --- | --- | --- | --- | --- |
| CC(=O)N[C@H]1CSSC[C@@H](C(N)=O)NC(=O)[C@H](C(C)C)NC(=O)[C@H](C)NC(=O)[C@H](Cc2c[nH]cn2)NC1=O [N—Ac—CHAVC—NH2, N-Ac-Cys-His-Ala-Val-Cys-NH2] | E-cadherin expression is greatly reduced; also recorded: expressed greatly reduced levels of E-cadherin | NRK cells retract from one another; also recorded: disrupted NRK cell adhesion | distribution of E-cadherin is non-contiguous; also recorded: reduced E-cadherin staining with a stitched appearance | > 100 µM | > 100 µM | > 100 µM | – |
| CC(=O)N[C@H]1CSSC[C@@H](C(N)=O)NC(=O)[C@H](C(C)C)NC(=O)CNC(=O)[C@H](Cc2c[nH]cn2)NC1=O [N—Ac—CHGVC—NH2, reference compound] | expressed E-cadherin | had no affect on cell adhesion | displayed E-cadherin staining concentrated at points of cell-cell contact and formed a tightly adherent monolayer | > 100 µM | > 100 µM | – | > 100 µM |
